Consider five molecules from ChEMBL document CHEMBL2203057, “Characterisation of [¹¹C]PR04.MZ in Papio anubis baboon: a selective high-affinity radioligand for quantitative imaging of the dopamine transporter” (Bioorg Med Chem Lett, 2012).

Molecules are shown by their SMILES.

The target in data set [1] is Sodium-dependent dopamine transporter (Rattus norvegicus, UniProt P23977). Description: Binding affinity to rat DAT.
For data set [2], the target named is T1, Sodium-dependent dopamine transporter (Homo sapiens, UniProt Q01959). The experiment in a line: Displacement of [3H]DA from human DAT expressed in HEK293 cells. It counts as cell-based.
The target of data set [3] is T2, Sodium-dependent serotonin transporter (Homo sapiens, UniProt P31645). The experiment in a line: Displacement of [3H]5-HT from human SERT expressed in HEK293 cells. It counts as cell-based. (In a radioligand displacement assay an active substance lowers the binding of a labelled ligand.)
Data set [4] deals with T1, Sodium-dependent dopamine transporter. The experiment in a line: Displacement of [3H]WIN35,428 from human DAT expressed in HEK293 cells. It counts as cell-based.
Data set [5] is described as follows: Lipophilicity, log D of the compound at pH 7.4 by HPLC. It is filed as physicochemical. The following applies: buffer.
For data set [6], the target named is T3, Sodium-dependent noradrenaline transporter (Homo sapiens, UniProt P23975). The experiment in a line: Displacement of [3H]nisoxetine from human NET expressed in HEK293 cells. It is filed as cell-based.
Data set [7] addresses T3, Sodium-dependent noradrenaline transporter. The experiment in a line: Displacement of [3H]NE from human NET expressed in HEK293 cells. It counts as cell-based.
Data set [8] concerns the target T2, Sodium-dependent serotonin transporter. Description: Displacement of [3H]citalopram from human SERT expressed in HEK293 cells. It counts as cell-based.
The target in data set [9] is T1, Sodium-dependent dopamine transporter. The experiment in a line: Binding affinity to DAT.
Data set [10] in a line: Drug distribution in Papio anubis cerebellum assessed as drug efflux constant at 137.4 +/- 66.8 MBq. It is filed as ADME, tissue-based.
Data set [11] can be described thus: Drug uptake in Papio anubis ventral striatum at 137.4 +/- 66.8 MBq measured 90 mins post dose by dynamic PET scanning method. It counts as ADME, tissue-based. The note with it: 1.5 h.
Data set [12] is described as follows: Unbound fraction in Papio anubis plasma at 137.4 +/- 66.8 MBq. It counts as ADME, cell-free.
Data set [13] in a line: Drug distribution in Papio anubis ventral striatum assessed as drug efflux constant at 137.4 +/- 66.8 MBq. It is filed as ADME, tissue-based.
The nature of data set [14]: In vivo binding affinity to DAT in Papio anubis caudate nucleus assessed as binding potential at 137.4 +/- 66.8 MBq. It counts as ADME, organism-based.
The nature of data set [15]: Drug uptake in Papio anubis caudate nucleus assessed per 100 ml at 137.4 +/- 66.8 MBq measured 25 mins post dose by dynamic PET scanning method. It is filed as ADME, tissue-based.
Data set [16] in a line: Drug uptake in Papio anubis putamen at 137.4 +/- 66.8 MBq measured 60 mins post dose co-treated with DAT ligand [18F]PR04.MZ by dynamic PET scanning method. It counts as ADME, tissue-based. The note with it: 1 h.
Data set [17] in a line: Drug uptake in Papio anubis mid brain at 137.4 +/- 66.8 MBq measured 45 mins post dose by dynamic PET scanning method. It is filed as ADME, tissue-based, Midbrain. The note with it: 0.75 h.
Data set [18] can be described thus: In vivo binding affinity to DAT in Papio anubis cerebellum assessed as binding potential at 137.4 +/- 66.8 MBq. It counts as ADME, organism-based.
The nature of data set [19]: Drug uptake in Papio anubis striatum assessed per 100 ml at 137.4 +/- 66.8 MBq measured 25 +/- 2.5 mins post dose by dynamic PET scanning method. It is filed as ADME, tissue-based.
Data set [20] can be described thus: Drug distribution in Papio anubis cerebellum assessed as drug influx constant at 137.4 +/- 66.8 MBq. It is filed as ADME, tissue-based.
A short description of data set [21]: Drug distribution in Papio anubis putamen assessed as drug efflux constant at 137.4 +/- 66.8 MBq. It is filed as ADME, tissue-based.
The test system of a further data set is Nucleic Acid. Description: Ratio of drug level in midbrain to cerebellum in Papio anubis midbrain at 137.4 +/- 66.8 MBq measured 90 mins post dose. The following applies: 1.5 h. It is filed as ADME.
A short description of data set [22]: Drug uptake in Papio anubis mid brain at 137.4 +/- 66.8 MBq measured 3.5 mins post dose by dynamic PET scanning method. It counts as ADME, tissue-based, Midbrain.
A further data set relates to Brain. Description: Drug uptake in Papio anubis whole brain assessed per 100 ml at 137.4 +/- 66.8 MBq measured 3 +/- 0.5 mins post dose by dynamic PET scanning method. It is filed as ADME, tissue-based.
Data set [23] in a line: Drug distribution in Papio anubis caudate nucleus assessed as drug efflux constant at 137.4 +/- 66.8 MBq. It is filed as ADME, tissue-based.
Data set [24] is described as follows: Drug uptake in Papio anubis ventral striatum at 137.4 +/- 66.8 MBq measured 7.5 +/- 0.5 mins post dose by dynamic PET scanning method. It counts as ADME, tissue-based.
The nature of data set [25]: Stability in Sprague-Dawley rat brain assessed as intact compound level measured 60 mins post dose by HPLC. It is filed as ADME, tissue-based. The note with it: read-out: Stability.
Data set [26] can be described thus: Drug distribution in Papio anubis ventral striatum assessed as drug influx constant at 137.4 +/- 66.8 MBq. It is filed as ADME, tissue-based.
Data set [27] in a line: Drug distribution in Papio anubis midbrain assessed as drug influx constant at 137.4 +/- 66.8 MBq. It is filed as ADME, tissue-based.
The nature of data set [28]: Stability in Papio anubis plasma assessed as intact compound level at 137.4 +/- 66.8 MBq measured 30 mins post dose. It counts as ADME, cell-free. The following applies: read-out: Stability.
Data set [29] in a line: In vivo binding affinity to DAT in Papio anubis ventral striatum assessed as binding potential at 137.4 +/- 66.8 MBq. It counts as ADME, organism-based.
Data set [30] can be described thus: Drug uptake in Papio anubis striatum assessed per 100 ml at 137.4 +/- 66.8 MBq measured 90 mins post dose by dynamic PET scanning method. It counts as ADME, tissue-based. The note with it: 1.5 h.
Data set [31] is described as follows: Drug uptake in Papio anubis putamen at 137.4 +/- 66.8 MBq measured 60 mins post dose co-treated with 1.5 mg/kg DAT ligand GBR12909 by dynamic PET scanning method. It is filed as ADME, organism-based. Also noted: dose 1.5 mg/kg. The note with it: in vivo, 1 h.
Data set [32] can be described thus: Drug distribution in Papio anubis putamen assessed as drug influx constant at 137.4 +/- 66.8 MBq. It is filed as ADME, tissue-based.
Data set [33] can be described thus: Drug uptake in Papio anubis caudate nucleus at 137.4 +/- 66.8 MBq measured 60 mins post dose co-treated with 1.5 mg/kg DAT ligand GBR12909 by dynamic PET scanning method. The note with it: in vivo, 1 h. Set-up: dose 1.5 mg/kg. It is filed as ADME, organism-based.
Data set [34] is described as follows: Drug uptake in Papio anubis midbrain at 137.4 +/- 66.8 MBq measured 60 mins post dose co-treated with DAT ligand [18F]PR04.MZ by dynamic PET scanning method. It is filed as ADME, tissue-based. The following applies: 1 h.
Data set [35] is described as follows: Drug uptake in Papio anubis mid brain at 137.4 +/- 66.8 MBq measured 90 mins post dose by dynamic PET scanning method. It is filed as ADME, tissue-based, Midbrain. The following applies: 1.5 h.
The nature of data set [36]: Drug uptake in Papio anubis caudate nucleus at 137.4 +/- 66.8 MBq measured 60 mins post dose co-treated with DAT ligand [18F]PR04.MZ by dynamic PET scanning method. The following applies: 1 h. It is filed as ADME, tissue-based.
A short description of data set [37]: Drug uptake in Papio anubis ventral striatum at 137.4 +/- 66.8 MBq measured 45 mins post dose by dynamic PET scanning method. It is filed as ADME, tissue-based. The note with it: 0.75 h.
Data set [38] can be described thus: Drug uptake in Papio anubis midbrain at 137.4 +/- 66.8 MBq measured 60 mins post dose co-treated with 1.5 mg/kg DAT ligand GBR12909 by dynamic PET scanning method. It counts as ADME, organism-based. Also noted: dose 1.5 mg/kg. The note with it: in vivo, 1 h.
Data set [39] is described as follows: In vivo binding affinity to DAT in Papio anubis putamen assessed as binding potential at 137.4 +/- 66.8 MBq. It counts as ADME, organism-based.
Data set [40] in a line: Drug distribution in Papio anubis caudate nucleus assessed as drug influx constant at 137.4 +/- 66.8 MBq. It counts as ADME, tissue-based.
A short description of data set [41]: Drug uptake in Papio anubis striatum assessed per 100 ml at 137.4 +/- 66.8 MBq measured 180 mins post dose by dynamic PET scanning method. It is filed as ADME, tissue-based. The following applies: 3 h.
Data set [42] in a line: Drug uptake in Papio anubis putamen assessed per 100 ml at 137.4 +/- 66.8 MBq measured 25 +/- 2.5 mins post dose by dynamic PET scanning method. It counts as ADME, tissue-based.
The nature of data set [43]: Drug distribution in Papio anubis midbrain assessed as drug efflux constant at 137.4 +/- 66.8 MBq. It counts as ADME, tissue-based.
A short description of data set [44]: In vivo binding affinity to DAT in Papio anubis midbrain assessed as binding potential at 137.4 +/- 66.8 MBq. It is filed as ADME, organism-based.

T1 sequence (Q01959 whole entry): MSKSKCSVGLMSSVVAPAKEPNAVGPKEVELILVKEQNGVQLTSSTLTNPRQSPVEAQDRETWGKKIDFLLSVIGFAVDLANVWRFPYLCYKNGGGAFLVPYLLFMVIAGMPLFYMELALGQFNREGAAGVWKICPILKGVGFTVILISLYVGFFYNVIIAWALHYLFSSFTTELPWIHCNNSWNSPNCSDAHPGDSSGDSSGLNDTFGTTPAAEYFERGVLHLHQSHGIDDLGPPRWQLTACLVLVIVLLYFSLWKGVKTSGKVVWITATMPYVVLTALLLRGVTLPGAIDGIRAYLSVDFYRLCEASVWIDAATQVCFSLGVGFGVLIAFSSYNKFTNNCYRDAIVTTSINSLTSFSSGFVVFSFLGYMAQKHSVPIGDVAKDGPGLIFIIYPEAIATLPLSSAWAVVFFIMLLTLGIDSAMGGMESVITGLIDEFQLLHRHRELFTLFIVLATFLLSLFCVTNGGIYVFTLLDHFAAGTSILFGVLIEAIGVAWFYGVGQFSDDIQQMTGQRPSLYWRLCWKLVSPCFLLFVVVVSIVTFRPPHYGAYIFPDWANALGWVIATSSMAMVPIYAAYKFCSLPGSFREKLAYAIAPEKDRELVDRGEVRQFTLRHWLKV
T2 sequence (P31645 whole entry): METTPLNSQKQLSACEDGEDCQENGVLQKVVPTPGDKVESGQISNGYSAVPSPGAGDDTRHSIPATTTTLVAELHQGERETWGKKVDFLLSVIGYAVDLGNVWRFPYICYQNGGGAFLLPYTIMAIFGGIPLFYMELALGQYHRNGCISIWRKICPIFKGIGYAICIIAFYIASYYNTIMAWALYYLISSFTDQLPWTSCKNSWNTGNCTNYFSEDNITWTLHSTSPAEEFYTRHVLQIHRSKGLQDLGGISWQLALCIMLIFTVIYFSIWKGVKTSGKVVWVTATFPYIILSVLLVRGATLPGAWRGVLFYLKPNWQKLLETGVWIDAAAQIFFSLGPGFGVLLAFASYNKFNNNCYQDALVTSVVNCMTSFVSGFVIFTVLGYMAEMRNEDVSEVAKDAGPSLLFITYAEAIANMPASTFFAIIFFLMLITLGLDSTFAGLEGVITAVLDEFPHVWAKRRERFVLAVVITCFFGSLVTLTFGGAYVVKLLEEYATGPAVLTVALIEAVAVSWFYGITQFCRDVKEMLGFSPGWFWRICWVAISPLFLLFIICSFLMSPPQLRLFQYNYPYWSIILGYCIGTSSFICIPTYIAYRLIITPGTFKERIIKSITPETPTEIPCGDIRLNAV
T3 sequence (P23975 whole entry): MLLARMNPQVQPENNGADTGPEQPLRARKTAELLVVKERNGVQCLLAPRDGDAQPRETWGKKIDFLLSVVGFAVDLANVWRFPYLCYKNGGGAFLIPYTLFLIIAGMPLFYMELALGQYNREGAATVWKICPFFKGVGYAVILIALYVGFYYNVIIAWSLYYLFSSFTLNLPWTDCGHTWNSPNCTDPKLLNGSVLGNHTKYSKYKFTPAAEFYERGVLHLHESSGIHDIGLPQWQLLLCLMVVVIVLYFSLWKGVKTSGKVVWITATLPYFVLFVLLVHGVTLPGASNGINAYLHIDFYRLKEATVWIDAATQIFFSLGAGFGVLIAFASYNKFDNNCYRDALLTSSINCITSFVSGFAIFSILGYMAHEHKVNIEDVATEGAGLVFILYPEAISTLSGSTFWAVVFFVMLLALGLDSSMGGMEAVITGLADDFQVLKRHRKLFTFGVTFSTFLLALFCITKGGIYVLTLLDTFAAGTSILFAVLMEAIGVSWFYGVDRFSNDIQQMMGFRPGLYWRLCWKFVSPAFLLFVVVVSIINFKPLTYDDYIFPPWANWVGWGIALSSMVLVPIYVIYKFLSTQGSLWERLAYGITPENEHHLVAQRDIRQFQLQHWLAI
Sequence of Sodium-dependent dopamine transporter (Rattus norvegicus, UniProt P23977) (P23977 whole entry): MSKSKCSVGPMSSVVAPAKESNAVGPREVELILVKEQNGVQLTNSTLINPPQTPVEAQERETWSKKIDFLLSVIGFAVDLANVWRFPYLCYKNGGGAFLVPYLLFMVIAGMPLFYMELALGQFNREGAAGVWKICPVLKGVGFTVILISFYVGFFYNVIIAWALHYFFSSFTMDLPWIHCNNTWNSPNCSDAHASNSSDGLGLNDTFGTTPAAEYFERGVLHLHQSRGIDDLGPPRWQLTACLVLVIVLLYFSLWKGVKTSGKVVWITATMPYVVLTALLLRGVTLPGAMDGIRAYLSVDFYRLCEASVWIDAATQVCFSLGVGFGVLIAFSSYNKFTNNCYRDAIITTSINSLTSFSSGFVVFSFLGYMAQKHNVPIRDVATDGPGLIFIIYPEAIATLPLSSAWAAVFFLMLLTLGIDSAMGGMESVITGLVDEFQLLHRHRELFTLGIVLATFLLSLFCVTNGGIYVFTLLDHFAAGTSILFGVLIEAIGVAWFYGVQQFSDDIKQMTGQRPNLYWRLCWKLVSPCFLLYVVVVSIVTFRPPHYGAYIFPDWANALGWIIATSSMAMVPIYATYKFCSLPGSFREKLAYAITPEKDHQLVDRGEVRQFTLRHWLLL

A word on the Kd: it is the concentration at which binding is half-saturated. Read a high Kd as lower affinity. `COC(=O)[C@H]1[C@@H](c2ccc(C)cc2)C[C@@H]2CC[C@H]1N2C/C=C/I` displayed a Kd in data set [1] of 4 nM.
As usually defined, the IC50 is the concentration that gives 50% inhibition. A high value points to weaker potency. In general, logD refers to lipophilicity at a set pH, counting ionised and neutral species. As to `COC(=O)[C@H]1[C@@H](c2ccc(C)cc2)C[C@@H]2CC[C@H]1N2CC#CCF`, the IC50 in [2] was found to be 3.26 nM; in data set [3], 240 nM; in data set [4], 1.93 nM; in data set [6], 22.5 nM; in data set [7] it was 31 nM; in data set [8], 108 nM. This molecule registered a logD in [5] of 2.7.
Take `COC(=O)[C@H]1[C@@H](c2ccc(C)cc2)C[C@@H]2CC[C@H]1N2C/C=C/CF`: the Kd in data set [1] was determined as 9 nM.
What is called Ki is the dissociation constant of the complex between target and ligand, obtained from inhibition or displacement. As to `COC(=O)[C@H]1[C@@H](c2ccc(Cl)cc2)C[C@@H]2CC[C@H]1N2CCF`, in data set [9], the Ki was 8 nM.
Regarding `Cc1ccc([C@H]2C[C@@H]3CC[C@H]([C@H]2C(=O)O[11CH3])N3CC#CCF)cc1`, the Activity in [10] was found to be 0.036 min⁻¹; in data set [13], 0.0076 min⁻¹; in data set [14], 29.3 ml/cm3; in [18] it was 0 ml/cm3; in data set [20] it was 0.144 ml/cm3/min; in [21], 0.004 min⁻¹. The Activity stood at 0.004 min⁻¹ in data set [23]; 0.03 ml/cm3/min in data set [26]; 0.064 ml/cm3/min in [27]; 8.2 ml/cm3 in data set [29]; 0.015 ml/cm3/min in [32]; 36.8 ml/cm3 in [39]. For the same molecule, the Activity in [40] stood at 0.017 ml/cm3/min; in [43], 0.016 min⁻¹; in data set [44], 2.7 ml/cm3. For the same molecule, the Drug uptake in data set [11] is given as 2.55 %ID/ml; in data set [15] it was 6.7 %ID; in [16] it was “Not Active”; in data set [17], 1.3 %ID/ml; in data set [19], 7.6 %ID; in data set [22], 2.8 %ID/ml. Further, the Drug uptake with Brain is recorded as 26.1 %ID; in [24], 3.8 %ID/ml; in [30], 6.7 %ID; in [31] it was “Not Active”; in [33] it was “Not Active”; in [34] it was “Not Active”. The Drug uptake in data set [35] is 0.8 %ID/ml; in data set [36], “Not Active”; in data set [37], 3.1 %ID/ml; in data set [38], “Not Active”; in data set [41], 4.8 %ID; in [42], 7.6 %ID. The molecule also gave a Fu in data set [12] of 4.4 %ID. Moreover, in the data set with Nucleic Acid, the Ratio was 4.6. In addition, in data set [25], the remaining at 1 h is over 95%. In [28], the remaining at 0.5 h is 39%.
